Residue numbers refer to the chain shown, from its start. Read-outs that look alike come from different tables or passages of the source.

Test [1] has as its target T1, hMDH2 (Homo sapiens, UniProt P40926).
T1 sequence (P40926 25-338): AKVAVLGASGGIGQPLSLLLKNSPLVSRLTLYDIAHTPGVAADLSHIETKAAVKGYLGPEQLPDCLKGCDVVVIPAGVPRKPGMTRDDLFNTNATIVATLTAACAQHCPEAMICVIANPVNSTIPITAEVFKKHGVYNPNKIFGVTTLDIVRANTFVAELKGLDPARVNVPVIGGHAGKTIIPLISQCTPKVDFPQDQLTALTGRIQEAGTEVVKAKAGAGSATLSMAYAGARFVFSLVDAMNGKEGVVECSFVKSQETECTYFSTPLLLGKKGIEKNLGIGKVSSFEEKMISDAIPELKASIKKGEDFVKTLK
Put plainly: NADH oxidation at […] nm. The format is biochemical. The note with it: read-out: % of control activity remaining at 10.0 mM.

Test [2] addresses T2, hMDH2 (Homo sapiens, UniProt P40926, H131W).
T2 sequence (P40926 25-338 H131W): T1 sequence (P40926 25-338) with H107W
Type of test: binding.

Test [3] has as its target T2, hMDH2. Type of test: binding. This is another data set of the same source.
Test [4] addresses T1, hMDH2. Briefly: NADH oxidation at […] nm. The format is biochemical. Particulars: read-out: % inhibition at 10.0 mM.

Take `Nc1ncnc2c1ncn2[C@@H]1O[C@H](COP(=O)(O)OP(=O)(O)O)[C@@H](O)[C@H]1O` [ADP]: on hMDH2 [1], the remaining activity at 10000 µM was determined as 18.7%. On hMDH2 [2], this molecule registered a Kd of 3.77 ± 0.27 mM. For `Nc1ncnc2c1ncn2[C@@H]1O[C@H](COP(=O)(O)OP(=O)(O)OP(=O)(O)O)[C@@H](O)[C@H]1O` [ATP], in that order: 29.1% and 9.63 ± 0.68 mM. For `NC(=O)c1ccc[n+]([C@@H]2O[C@H](COP(=O)(O)OP(=O)(O)OC[C@H]3O[C@@H](n4cnc5c(N)ncnc54)[C@H](O)[C@@H]3O)[C@@H](O)[C@H]2O)c1` [NAD^+], in that order: 13.2% and 1.02 ± 0.039 mM. As for `O=C(O)CC(O)(CC(=O)O)C(=O)O` [citrate], the remaining activity at 10000 µM at hMDH2 [1] worked out at 31%. Regarding `O=C(O)CCC(=O)C(=O)O` [α-ketoglutarate], the Kd on hMDH2 [3] was determined as 10.4 ± 1.45 mM. Further, the inhibition at 10000 µM at hMDH2 [4] came out at 51.7%.

Values taken from article doi:10.1101/2025.07.15.665002v1 (biorxiv, 2025).
